These results are taken from patent publication US20240382403A1, “COSMETIC, DERMATOLOGICAL OR COSMECEUTICAL TREATMENT, IN PARTICULAR PROPIGMENTING” (Sederma, priority 2021, published 2024).

The test system of series [1] is NHM. As to the kind of experiment: Pigmentation of NHM, microscopic observation by expert. In kind it is cell-based, human. The following applies: 10 days. How it is done:
NHM are cultivated and placed in contact with the product according to the invention for 10 days. At the end of this contact period, cells are observed with a microscope and variation of pigmentation of cells versus control is evaluated by an expert.

The subject of series [2] is normal human melanocytes (NHM). As to the kind of experiment: Melanin production by NHM without UV induction (spectrophotometry). In kind it is cell-based. The conditions noted are these: for melanin production by NHM, Variation (%) vs control / Melanin: n = 4; for increase in pigmentation of NHM vs. control: 16 ppm; for Melanin Variation (%) vs control / Melanin: 10 days contact; for Melanin: without UV induction. How it is done: (§1) NHM are cultivated and placed in contact with the product according to the invention for 10 days. At the end of this contact period, the mats are ground and the melanin is extracted from the cells. The quantity of melanin is assessed by spectrophotometry, using a standard range established previously from a melanin solution and compared to the control. A protein assay using the bicinchoninic acid (BCA) method is performed to estimate the quantity of cells and to standardise the obtained data.
The tests were carried out on NHM, the protocol being the same to the one above of point a)
The protocol is the same as that of point a) above.

The test system of series [3] is keratinocytes. As to the kind of experiment: PGE2 in keratinocytes with or without UVB (ELISA). In kind it is cell-based. The conditions noted are these: for PGE2 with UVB irradiation / PGE2 without irradiation: n = 3. As to the method: (§2) Keratinocytes are seeded and cultured and, once at sub-confluence, receive the tyrosine derivative according to the invention, or its solvent, at different concentrations. After 24 hours, the cells are rinsed and then exposed to UVB, and the cells are then re-treated with the media containing the tyrosine derivative according to the invention at different concentrations for 24 hours. Other cases are not exposed. The culture media are assayed for PGE2, IL6 and IL8 using ELISA methods. The number of cells was estimated using the Hoescht method.
(In general: An ELISA detects its analyte on a solid surface through an enzyme-linked reagent.)

Series [4] has as its system keratinocytes. As to the kind of experiment: IL8 in keratinocytes with UVB (ELISA). In kind it is cell-based. The following applies: for IL8 with UVB irradiation: n = 2. How it is done: as §2
Series [5] concerns B16 mouse pigment cells. As to the kind of experiment: Number of cells in the B16 melanin test. In kind it is cell-based. The following applies: tested concentrations 5.5 and 11 ppm. How it is done: as §1
(§3) B16 mouse pigment cells are cultivated and placed in contact with the product according to the invention for 2 days. For this type of cells, tyrosinase is also assayed. Tyrosinase is the first enzyme in the chain of melanogenesis, changing tyrosine to DOPA-quinone.

In series [6] the test system is HaCaT keratinoctes. As to the kind of experiment: Laminin production by keratinocytes (ELISA). In kind it is cell-based. The conditions noted are these: 3 days; for Laminin: n = 4. How it is done: (§4) HaCaT keratinoctes are seeded and cultured and, once at sub-confluence, receive the tyrosine derivative according to the invention, or its solvent, at different concentrations for 3 days. At the end of this period, the media are collected for hyaluronic acid and laminin assays using ELISA methods. The cell concentration is estimated using the Hoescht method.

Series [7] relates to B16 mouse pigment cells. As to the kind of experiment: Melanin production by B16 mouse pigment cells. In kind it is cell-based. The conditions noted are these: 2 days contact; for Melanin: n = 4. How it is done:
as §1, §3

The subject of series [8] is HaCaT keratinoctes. As to the kind of experiment: Hyaluronic acid production by keratinocytes (ELISA). In kind it is cell-based. The following applies: 3 days; for Hyaluronic acid: n = 4. How it is done:
as §4

Series [9] deals with fibroblasts. The series can be described thus: PGE2 in fibroblasts with or without UVB (ELISA). The conditions noted are these: for PGE2 with UVB irradiation / PGE2 without irradiation: n = 3. In kind it is cell-based. How it is done: as §2
The same protocol is applied in parallel to Fibroblasts.

In series [10] the test system is keratinocytes. The series can be described thus: IL6 in keratinocytes with UVB (ELISA). The conditions noted are these: for IL6 with UVB irradiation: n = 2. In kind it is cell-based. As to the method: as §2
The subject of series [11] is Tyrosinase. As to the kind of experiment: Tyrosinase activity by B16 mouse pigment cells. In kind it is cell-based. The conditions noted are these: 2 days contact; for Tyrosinase: n = 4. As to the method: as §3
For series [12], the system named is Normal human keratinocytes (NHK). The series can be described thus: NHK phagocytosis of fluorescent microbeads mimicking melanosomes. The following applies: for Phagocytosis (μbeas: (Total Area/1000)): 24 h treatment then beads 3 h, n = 4. In kind it is cell-based. How it is done:
Normal human keratinocytes (NHK) are seeded and cultured and, once at 50% sub-confluence, receive the tyrosine derivative according to the invention, or its solvent, at different concentrations for 24 h. At the end of this period, the cells receive the fluorescent microbeads mimicking melanosomes for 3 h. Then, the cells are rinsed to remove excess beads, and the mats are visualized under a fluorescence microscope to quantify phagocytosis. The cell concentration is estimated using the Hoescht method.

In series [13] the test system is NHM. As to the kind of experiment: Number of cells (BCA protein assay) in the NHM melanin test. In kind it is cell-based, human. The following applies: tested concentrations 5.5 and 11 ppm. How it is done: as §1
The mark [14] stands for this setting: 12.5 μM (5.5 ppm of N-Palmitoyl-O-methyl-L-Tyrosine, 5.25 ppm of N-Palmitoyl-L-Tyrosine).
Where [15] appears, read: 25 μM (11 ppm of N-Palmitoyl-O-methyl-L-Tyrosine, 10.5 ppm of N-Palmitoyl-L-Tyrosine).

As to `CCCCCCCCCCCCCCCC(=O)N[C@@H](Cc1ccc(O)cc1)C(=O)O` [N-Palmitoyl-L-Tyrosine, reference compound], the “Variation of pigmentation of cells versus control (expert grade)” value in series [1] (12.5 μM) and in series [1] (25 μM) was 0 each time. Besides, the “melanin production by NHM, Variation (%) vs control” value in series [2] (setting [14]) is reported as “+7%; dns”; in series [2] (setting [15]), “+10%; dns”.
With `CCCCCCCCCCCCCCCC(=O)N[C@@H](Cc1ccc(OC)cc1)C(=O)O` [N-Palmitoyl-O-methyl-L-Tyrosine], the “PGE2 with UVB irradiation Variation (%) vs control” value in series [3] (5.5 ppm) is given as −62%; p < 0.01; in series [3] (11 ppm), −73%; p < 0.01; in series [9] (5.5 ppm, non significant data), −19%; nsd*; in [9] (11 ppm), −33%; p < 0.01. In addition, the “PGE2 without irradiation Variation (%) vs control” value in series [3] (5.5 ppm) was −60%; p < 0.01; in [3] (11 ppm), −58%; p < 0.01; in series [9] (5.5 ppm) it was −32%; p < 0.01; in series [9] (11 ppm), −41%; p < 0.01. The “PGE2 with UVB irradiation” value was 101 +/− 7 ng/10^6 cell in series [3] (5.5 ppm), 72 +/− 3 ng/10^6 cell in series [3] (11 ppm), 7332 +/− 478 ng/10^6 cell in series [9] (5.5 ppm) and 6117 +/− 735 ng/10^6 cell in series [9] (11 ppm). Besides, the PGE2 without irradiation in series [3] (5.5 ppm) was 51 +/− 5 ng/10^6 cell; in series [3] (11 ppm) it was 54 +/− 5 ng/10^6 cell; in [9] (5.5 ppm), 7420 +/− 422 ng/10^6 cell; in series [9] (11 ppm), 6470 +/− 311 ng/10^6 cell. Moreover, the “IL8 with UVB irradiation Variation (%) vs control” value in series [4] (5.5 ppm) was −42%; p < 0.01; in series [4] (11 ppm) it was −90%; p < 0.01. Also, the “IL8 with UVB irradiation” value in series [4] (5.5 ppm) is 4.3 +/− 0.7 ng/10^6 cell; in series [4] (11 ppm) it was 0.7 +/− 0 ng/10^6 cell. Further, the “number of cells / toxicity” value in [5] and in series [13] was “neither toxic nor multiplication activator” throughout. Besides, the “Laminin Variation (%) vs control” value is on record as “+33%; p < 0.01” in series [6] (2.75 ppm) and “+69%; p < 0.01” in series [6] (5.5 ppm). Besides, the Laminin in series [6] (2.75 ppm) is 88 +/− 3 ng/10^6 cell; in [6] (5.5 ppm) it was 111 +/− 9 ng/10^6 cell. Moreover, the “Melanin Variation (%) vs control” value is given as “+26%; p < 0.01” in [7] (5.5 ppm); “+62%; p < 0.01” in series [7] (11 ppm); “+50%; p < 0.01” in series [2] (NHM, 5.5 ppm); “+86%; p < 0.01” in [2] (NHM, 11 ppm). The Melanin is listed as 171.1 +/− 2.3 μg/mL/10^6 cell in series [7] (5.5 ppm); 220.7 +/− 8.7 μg/mL/10^6 cell in series [7] (11 ppm); 404 +/− 42 μg/mL/10^6 cell in series [2] (NHM, 5.5 ppm); 501 +/− 41 μg/mL/10^6 cell in [2] (NHM, 11 ppm). Besides, the “Hyaluronic acid Variation (%) vs control” value is listed as “+35%; p < 0.01” in series [8] (1.375 ppm) and “+31%; p < 0.01” in series [8] (2.75 ppm). Also, the Hyaluronic acid was 402 +/− 35 ng/10^6 cell in series [8] (1.375 ppm) and 391 +/− 25 ng/10^6 cell in series [8] (2.75 ppm). For the same molecule, the results for the “melanin production by NHM, Variation (%) vs control” value in [2] (setting [14]) and in series [2] (setting [15]) were “+50%; p < 0.01” and “+86%; p < 0.01”, respectively. Further, in series [2] (NHM), the “increase in pigmentation of NHM vs. control” value is given as 52%. Besides, the results for the “IL6 with UVB irradiation Variation (%) vs control” value in series [10] (5.5 ppm) and in series [10] (11 ppm) were −43%; p < 0.01 and −45%; p < 0.01, respectively. For the same molecule, the entries for the “IL6 with UVB irradiation” value in series [10] (5.5 ppm) and in series [10] (11 ppm) were 880 +/− 142 ng/10^6 cell and 853 +/− 115 ng/10^6 cell, respectively. Moreover, the results for the “Tyrosinase Variation (%) vs control” value in series [11] (5.5 ppm) and in series [11] (11 ppm) were “+9.7%; p < 0.01” and “+20.5%; p < 0.01”, respectively. The Tyrosinase in series [11] (5.5 ppm) is given as 2.8 +/− 0 U/1000 μg protein; in series [11] (11 ppm), 3.1 +/− 0 U/1000 μg protein. In addition, the “Phagocytosis Variation (%) vs control” value is “+71%; p < 0.01” in [12] (5.5 ppm) and “+129%; p < 0.01” in series [12] (11 ppm). The “Phagocytosis (μbeas: (Total Area/1000))” value is given as 6599 +/− 1115 Total Area/1000 in series [12] (5.5 ppm) and 9910 +/− 1161 Total Area/1000 in series [12] (11 ppm).
`CCCCCCCC/C=C\CCCCCCCCN[C@@H](Cc1ccc(O)cc1)C(=O)O` [oleyl tyrosine, reference compound]: the “increase in pigmentation of NHM vs. control” value in series [2] (NHM) was determined as 9%. The “increase in NHM pigmentation vs. control” value in [2] (NHM, approximately 3 times more oleyl tyrosine applied than 16 ppm) is on record as “+35%”.
